According to PubChem BioAssay (NCI):
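Cultured in 96-well plates, cells were exposed to test compound for 48 hours across five concentrations. GI50 marks 50% less growth. TGI is the concentration that stops growth completely.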

Experiments:
Assay in all cases: NCI-60 cell line screen, 48 h
SF-539 CNS = test system: SF-539 CNS
HT29 colon = test system: HT29 colon
HOP-62 NSCLC = test system: HOP-62 NSCLC
NCI-H23 lung = test system: NCI-H23 lung
SNB-78 CNS = test system: SNB-78 CNS
KM20L2 colon = test system: KM20L2 colon
LXFL 529 NSCLC = test system: LXFL 529 NSCLC
DLD-1 colon = test system: DLD-1 colon

Compound	TGI (SF-539 CNS) [µM]	TGI (HT29 colon) [µM]	TGI (HOP-62 NSCLC) [µM]	TGI (NCI-H23 lung) [µM]	other results
CN1CC(S(=O)(=O)c2ccccc2)CC(S(=O)(=O)c2ccccc2)C1c1ccccc1 (stereo unspecified)	36.9	29.6	54.6	–	–
COC(=O)c1cn(CCCCO)nn1	> 100	> 100	> 100	> 100	–
Cc1ccc(N=Nc2c(C)nn(C(=O)CC(=O)Nc3ccc(Cl)cc3)c2C)cc1C	> 100	> 100	> 100	> 100	–
O=C(Nc1ccc(N2C(=O)CSC2c2cccs2)cc1)c1ccc(N2C(=O)CSC2c2cccs2)cc1 (stereo unspecified)	> 100	> 100	> 100	96.4	–
Cc1nc2ccc(S(=O)(=O)Nc3ccccc3Cl)cc2c(=O)n1NC(=O)CNc1ccccc1Cl	> 100	> 100	> 100	> 100	–
CCOC(=O)NC(C(C(=O)OCC)C(=O)OCC)(C(F)(F)F)C(F)(F)F	> 100	> 100	> 100	> 100	–
NN/C(=N\S(=O)(=O)c1cccc2nsnc12)Nc1ccc(Cl)cc1	> 100	> 100	> 100	> 100	–
Nc1ccc(-c2nc3ccc(Cc4ccc5nc(-c6ccc(N)cc6)oc5c4)cc3o2)cc1	> 100	> 100	–	> 100	–
COC(=O)CCSC1=CC(=O)c2nc3ccccc3c3ccnc1c23	29.8	34.1	> 100	32	–
Cc1ccc(S(=O)(=O)c2ccsc2NC(=O)c2ccccc2)cc1	> 100	> 100	45	> 31.6	–
O=C(O)c1nc2cc(C(F)(F)F)ccc2[nH]c1=O	> 100	> 100	> 100	> 100	–
O=C(Oc1ccc(OC(Oc2ccccc2)c2ccccc2)cc1)c1ccccc1 (stereo unspecified)	> 31.6	> 31.6	19	24.4	–
CN(C)C(=O)C(F)(F)C(c1ccc(C(F)(F)F)cc1)C1C(=O)N(C)C(=O)N(C)C1=O (stereo unspecified)	–	–	> 100	> 100	–
Cc1ccc(C2SC(N)=Nc3c2c(C)nn3C(=O)c2ccc(Cl)cc2)cc1 (stereo unspecified)	> 10	> 10	> 10	> 10	–
C=CCN1C[C@@H](C)N([C@@H](c2ccccc2)c2ccc(C(=O)N(CC)CC)cc2)C[C@@H]1C	> 100	> 100	> 100	> 100	–
Cc1cn(C2CC(N=[N+]=[N-])C(C(=O)O)O2)c(=O)[nH]c1=O (stereo unspecified)	> 100	> 100	> 100	> 100	–
ClCCCC1COc2ccccc2O1 (stereo unspecified)	> 100	> 100	> 100	–	–
CCN(CC)CCOCC1CCCN2CCCCC12 (stereo unspecified)	> 100	> 100	> 100	> 100	–
COc1ccc(/C(Cl)=C(\CNc2ccccn2)c2ccccc2)cc1OC	> 100	> 100	> 100	> 100	–

Compound	TGI (SF-539 CNS) [µM]	TGI (HT29 colon) [µM]	TGI (HOP-62 NSCLC) [µM]	TGI (NCI-H23 lung) [µM]	other results
O=C1CCCCCCCCCCC1CN(Cc1ccccc1)Cc1ccccc1 (stereo unspecified)	> 100	–	> 100	> 100	–
COc1ccc(N2C(=O)C3c4[nH]c5cc(Cl)ccc5c4C4CCC(C(C)(C)C)CC4C3C2=O)cc1 (stereo unspecified)	> 100	> 100	> 100	> 100	–
CCCCCCCCCCCCCCC[C@@H](O)C[N+](C)(C)CCO	21.8	4.62	> 100	10.7	–
O=c1[nH]cnc2c1ncn2C1SC(CO)C(O)C1O (stereo unspecified)	> 100	> 100	> 100	> 100	–
O=C1c2ccccc2-n2c1nc1cc(Cl)ccc1c2=O	> 100	> 100	> 100	> 100	–
CC1=C(c2ccc(C)cc2)NC(=S)C(C)C(c2ccc(C)cc2)=N1 (stereo unspecified)	> 100	> 100	> 100	> 100	–
C=CCN(c1cc(OCc2ccccc2)c2c(c1)c(C)cn2S(=O)(=O)c1ccccc1)S(C)(=O)=O	> 100	> 100	> 100	> 100	–
N#Cc1nc(C2SCCCS2)oc1N	–	> 100	> 100	–	–
Cc1cccc2c(N)c3cccc(C(=O)NCCN4CCOCC4)c3nc12	> 100	3.99	7.55	2.17	–
COc1ccc2[nH]cc(CN3CCC(CO)(c4ccccc4)CC3)c2c1	–	> 100	58.8	> 100	–
COC(=O)c1c2c(cc3c1CC1(C3)Cc3ccc4c(c3C1=O)CCC4)CCC2 (stereo unspecified)	9.36	8.45	> 30	> 31.6	–
CCCC(=O)[O-].CCCC(=O)[O-].N.N.N.N.[Co+3].[O-][Cl+3]([O-])([O-])[O-]	> 100	> 100	> 100	> 100	GI50 (SNB-78 CNS): > 100 µM; TGI (SNB-78 CNS): > 100 µM; GI50 (KM20L2 colon): > 100 µM; TGI (KM20L2 colon): > 100 µM; GI50 (LXFL 529 NSCLC): > 100 µM; TGI (LXFL 529 NSCLC): > 100 µM; GI50 (DLD-1 colon): > 100 µM; TGI (DLD-1 colon): > 100 µM
O=C(Nn1c(-c2ccccc2)nc2ccccc2c1=O)c1ccc(O)cc1	> 100	> 100	> 100	> 100	–
COc1cc(S(=O)(=O)Nc2ccc(-c3csc(/N=C\C=C\c4ccccc4)n3)cc2)ccc1Cl	59.8	> 100	> 100	> 100	–
CCN(CC)c1nc(=O)c(C(=O)C(C)(C)C)c(C(C)(C)C)o1	> 100	> 100	> 100	> 100	–
Cc1ccc(-c2n[nH]c(=O)n2N2C(=O)C=CC2=O)cc1	> 100	> 100	> 100	> 100	–
O=c1c2ccccc2n2n1Cc1ccccc1C2	> 100	> 100	> 100	> 100	–
COC1CC(n2ccc(=O)[nH]c2=O)OC1CO (stereo unspecified)	> 100	> 100	> 100	> 100	–
Nc1ccc(-c2nc3ccccc3s2)cc1I	> 100	> 100	> 100	> 100	–
